# Assay results reported in US9868715B2 (THE BOARD OF REGENTS OF THE UNIVERSITY OF TEXAS SYSTEMS, priority 2014, dated 2018).
# What was measured:
# [1] = molecular target: T1, human CBS (cystathionine-β-synthase) (Homo sapiens, UniProt P35520); assay: H2S production by recombinant CBS; type: biochemical; conditions: 100 μM compound; H2S production as % of control (100%)
# T1 construct: GST (N); made in house; host or cells: E. coli BL21(DE3) Codon Plus
# T1 sequence (P35520 1-551): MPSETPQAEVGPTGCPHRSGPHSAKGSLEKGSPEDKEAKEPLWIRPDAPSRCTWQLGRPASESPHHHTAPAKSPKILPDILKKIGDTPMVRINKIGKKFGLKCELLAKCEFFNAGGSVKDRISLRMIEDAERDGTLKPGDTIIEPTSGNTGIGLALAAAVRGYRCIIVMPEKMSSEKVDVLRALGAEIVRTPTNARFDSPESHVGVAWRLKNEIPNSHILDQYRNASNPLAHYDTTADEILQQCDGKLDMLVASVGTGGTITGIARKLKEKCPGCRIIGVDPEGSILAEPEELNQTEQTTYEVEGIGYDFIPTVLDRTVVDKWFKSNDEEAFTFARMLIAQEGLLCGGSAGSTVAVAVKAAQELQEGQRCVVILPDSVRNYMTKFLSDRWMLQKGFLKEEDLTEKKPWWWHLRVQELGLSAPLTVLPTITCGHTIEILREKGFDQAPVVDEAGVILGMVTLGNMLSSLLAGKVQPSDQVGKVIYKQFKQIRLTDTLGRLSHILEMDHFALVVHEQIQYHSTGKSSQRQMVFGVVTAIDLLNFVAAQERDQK
# Protocol: Recombinant human CBS protein expression and purification. The expression and purification of human CBS was performed as described previously (Asimakopoulou et al. 2013, Br J Pharmacol. 169(4):922-32). Briefly, E. Coli BL21(DE3) Codon Plus cells (Stratagene, La Jolla, Calif., USA) containing the expression vector pGEX-Kg/GST-CBS were grown at 37° C. and 180 rpm in LuriaBertani (LB) broth medium containing 100 μg/ml ampicillin to an absorption of 0.6-0.8 at 600 nm. Protein expression was induced by addition of 0.1 mM IPTG (isopropyl-b-D-thiogalactopyranoside) and cells were further incubated at 30° C. overnight. The bacteria were harvested and sonicated in lysis buffer PBS (140 mM NaCl, 2.7 mM KCl, 10 mM Na2HPO4, 1.8 mM KH2PO4, pH 7.8) containing a protease inhibitors cocktail (Sigma). The protein lysate was loaded onto a GSTrap FF 1 ml affinity column (Amersham Biosciences) and the GST-CBS recombinant protein was eluted with the elution buffer (50 mM Tris-HCl, 10 mM reduced glutathione, pH 8.0) and then dialyzed and concentrated in 10 mM sodium phosphate buffer (pH 8.2) and DTT (1 mM).
# Measurement of H2S production by recombinant CBS. The measurement of H2S production by recombinant CBS enzyme was performed as described (Asimakopoulou et al. 2013, Br J Pharmacol. 169(4):922-32). Briefly, each test consisted of a 100 μl reaction mixture in 50 mM sodium phosphate buffer pH 8.2 containing 1 μg of the purified human CBS enzyme, 0.01 mM pyridoxal-5′-phosphate (PLP), 10 mM L-cysteine and 0.5 mM homocysteine. […] The reaction was initiated by transferring the Eppendorf tubes from ice to a 37° C. shaking water bath. After 60 minutes of incubation at 37° C., the reaction was terminated by adding 1% ZnAc followed by 10% trichloroacetic acid. Subsequently, N,N-dimethylphenylendiamine sulfate (20 mM in 7.2 M HCl) and FeCl3 (30 mM in 1.2 M HCl) were added and the optical absorbance of the solutions was measured at 650 nm.
# [2] = test system: transformed PSC (human pancreatic stellate cells); assay: PSC proliferation, AlamarBlue Cell Viability Assay; type: cell-based; conditions: for inhibition at 10 µM / inhibition at 20 µM / inhibition at 5 µM: Homo sapiens, read-out: Inhibitory Effect (%) on PSC proliferation; for inhibition at 10 µM / inhibition at 20 µM / Inhibitory Effect (%) on PSC proliferation / inhibition at 5 µM: mean of at least three independent experiments, NE = No effect; for inhibition at 10 µM / Inhibitory Effect (%) on PSC proliferation: 10 μM; for Antiproliferative effect on PSC, result in words: transformed PSC, AlamarBlue
# Protocol: The calculated lipophilicity (cLogP) and topological polar surface area (tPSA) values of synthesized analogues are listed in Table 1. […] AlamarBlue is a non-toxic reagent that is converted to a highly fluorescent end product by viable cells.
# Under an IRB-approved tissue protocol, discarded human resected pancreatic tissue (500 mm^3) was attained fresh from the operating room at the University of Texas Medical Branch. The tissue was minced and plated on a collagen-coated flask (15 μg/mL, Invitrogen) with DMEM (VWR; Radnor, Pa.) supplemented with penicillin 200 U/mL, streptomycin 200 μg/mL, amphotericin B 0.25 μg/mL and gentimicin 50 μg/mL (Invitrogen, Carlsbad Calif.), 10% fetal bovine serum (Lonza, Walkersville, Md.), 1% insulin-transferrin, selenium-ethanolamine (Gibco, Grand Island, N.Y.), and 1% non-essential amino acids (Sigma-Aldrich, St. Louis, Mo.). The human PSC were isolated by the outgrowth method.^41-43 The purity of PSC culture was confirmed by immunohistochemical staining for vimentin, α-smooth muscle actin, glial fibrillar acidic protein, or Oil red O staining. Primary PSC were transformed and immortalized for use in experiments using lentiviral vectors containing SV40 Large T antigen and human telomerase (plasmid #12245 and 12246; Addgene, Cambridge, Mass.). Cultures were maintained in DMEM with 10% FBS, at 37° C. in a humidified 95% O2/5% CO2 atmosphere.
# Cell proliferation assay. Transformed PSC (3×10^3) were plated in 96-well plates, in sextuplicate. […] AlamarBlue reagent (10% sample volume, DAL1025) was added to each well per Invitrogen's protocol. Fluorescence was recorded using excitation/emission wavelengths of 544/590 nm and the SpectraMax M2 Microplate Reader (Molecular Devices, Sunnyvale Calif.).
# Statistical analysis. Dose-response curves were generated by plotting fluorescence or absorbance versus log (compound concentration). A best-fit curve was created using nonlinear regression, and the IC50 or EC50 determined from the graph (GraphPad Prism 5; GraphPad Software Inc., La Jolla, Calif.). To analyze continuos variables, unpaired student t-tests and one-way ANOVA with Tukey-Kramer multiple comparisons post-test (GraphPad Prism 5). Significance was set at p<0.05.
SMILES,activity at 100 µM [1] [%],melting point [°C],inhibition at 10 µM [2] [%],inhibition at 20 µM [2] [%],Inhibitory Effect (%) on PSC proliferation [2] [%],inhibition at 5 µM [2] [%],"Antiproliferative effect on PSC, result in words [2]"
"COc1cc(OC)c2c(=O)cc(-c3ccc(OC4CCN(C)CC4)cc3)oc2c1 [Compound 9, 5,7-Dimethoxy-2-(4-(1-methylpiperidin-4-yloxy)phenyl)-chromen-4-one]",122,143 to 144,49,–,49,28,–
"COc1cc(OC)c2c(=O)cc(-c3ccc(OCCCN(C)C)cc3)oc2c1 [Compound 12, 2-(4-(3-Dimethylaminopropoxy)phenyl)-5,7-dimethoxy-chromen-4-one]",83.9,105 to 106,59,86,59,36,–
"COc1cc(OC)c2c(=O)cc(-c3ccc(OCCN4CCN(C)CC4)cc3)oc2c1 [Compound 15, 5,7-Dimethoxy-2-(4-(2-(4-methylpiperazin-1-yl)ethoxy)phenyl)-chromen-4-one]",124,144 to 145,42,67,–,22,–
"COC(=O)[C@@H]1CCCN1CCOc1ccc(-c2cc(=O)c3c(OC)cc(OC)cc3o2)cc1 [Compound 18, 1-(2-(4-(5,7-Dimethoxy-4-oxo-4H-chromen-2-yl)phenoxy)ethyl)-pyrrolidine-2-carboxylic acid methyl ester]",116,121 to 122,37,67,–,22,–
"COc1cc(OC)c2c(=O)cc(-c3ccc(OCC(O)CO)cc3)oc2c1 (centres unmarked) [Compound 28, 2-(4-(2,3-Dihydroxypropoxy)phenyl)-5,7-dimethoxy-chromen-4-one]",104,203 to 204,11,16,–,–,dramatic loss of activities
COc1cc(OC)c2c(=O)cc(-c3ccc(NCCN4CCCC4)cc3)oc2c1 [Compound 37],109,148 to 149,51,80,–,21,–
"COc1cc(OC)c2c(=O)cc(-c3ccc(Br)cc3)oc2c1 [Compound 31, 2-(4-Bromophenyl)-5,7-dimethoxy-chromen-4-one]",69.4,–,10,22,–,12,–

# Now from value to compound, other results behind:
activity at 100 µM [1] [%],melting point [°C],SMILES,inhibition at 10 µM [2] [%],inhibition at 20 µM [2] [%],Inhibitory Effect (%) on PSC proliferation [2] [%],inhibition at 5 µM [2] [%],"Antiproliferative effect on PSC, result in words [2]"
117,149 to 150,"COc1cc(OC)c2c(=O)cc(-c3ccc(OCCN4CCOCC4)cc3)oc2c1 [Compound 11, 5,7-Dimethoxy-2-(4-(2-morpholin-4-yl-ethoxy)phenyl)-chromen-4-one]",–,–,–,–,–
109,127 to 129,COc1cc(O)c2c(=O)cc(-c3ccc(OCCN4CCCC4)cc3)oc2c1 [Compound 38],39,99,–,–,–
127,187 to 188,"COc1cc(OC)c2c(=O)cc(-c3ccc(OCCF)cc3)oc2c1 [Compound 8, 2-(4-(2-Fluoroethoxy)phenyl)-5,7-dimethoxy-chromen-4-one]",–,21,–,–,slightly increased antiproliferative effects in comparison with 6
116,170 to 171,"COc1cc(OC)c2c(=O)cc(-c3ccc(OCCCN)cc3)oc2c1 [Compound 21, 2-(4-(3-Aminopropoxy)-phenyl)-5,7-dimethoxy-chromen-4-one]",39,–,–,22,–
130,–,"COc1cc(OC)c2c(=O)cc(-c3ccc(O)cc3)oc2c1 [Compound 6, 2-(4-Hydroxy-phenyl)-5,7-dimethoxy-chromen-4-one]",–,–,–,–,–
